Each compound was assayed on PC-3 cells (assay: Tumor cell growth inhibition, sulforhodamine B (SRB) staining). Conditions: PC-3 human prostatic carcinoma cells, 48 hrs, absorbance 540 nm, adriamycin as positive control.
Assay type: cell-based
Description: PC-3 cells (ATCC, US), human prostatic carcinoma cell line, were cultured in RMPI 1640 supplemented with 10% fetal bovine serum.
Appropriate concentrations of cells (5×10^4 cells/ml) cultured in RMPI 1640 supplemented with 5% fetal bovine serum were poured into 96-well plate and incubated at 37° C. in 5% CO2 condition. The day after the incubation, PC-3 cells were fixed on Time zero (T0) plate by adding 50 μl/well of 50% trichloroacetic acid and the cell concentration was set to zero point by fixing the cells. In the cells treated with test samples, 50% TCA was added to each wells in 50 ul/well after 48 hrs to fix the cells. The final concentration of adding test compounds were 0.01, 0.03, 0.1, 0.3, 1 μg/ml respectively. Then, each fixed plate was washed, dried and 100 μl/well of 0.4% reaction solution containing sulforhodamine B (SRB) reagent dissolved in 0.1% acetic acid was added thereto to stain the cells. 30 minutes later, the cell was washed with 0.1% acetic acid, dried at room temperature, and 10 mM of TRIS base (pH 10.5) was added thereto to dissolve the staining agent. Finally, the absorbance detected at 540 nm was measured and the value was conversed into percentage comparing with that of control group. IC50 (μg/ml), the concentration of the group required to inhibit the cancer cell growth by 50%, was calculated from the data (AA: IC50's<1, A: IC50's<5, B: IC50's<10 and C: IC50's>10). Also, the inhibiting activity of cell growth was expressed as various symbols in accordance with the potency of examples e.g., AA: closely equivalent (1˜2 times), A: slightly weaker (3˜5 times), B: weaker (5˜10 times), C: very weaker (more than 10 times) than that of adriamycin used as a positive control group.

SMILES	IC50 [µg/mL]	Cell growth inhibition
O=C(O)CCC1=CCCN(Cc2ccccc2)C1=O [Example 64, 3-(1-benzyl-2-oxo-1,2,5,6-tetrahydro-pyridin-3-yl)-propionic acid]	> 10	–
O=C(CCC1=CCN(CCCc2ccc(-c3ccccc3)cc2)C1=O)NO [Example 55, 3-[1-(3-biphenyl-4-yl-propyl)-2-oxo-2,5-dihydro-1H-pyrrol-3-yl]-N-hydroxy-propionamide]	< 1	–
COc1ccc(CN2CC=C(CCC(=O)O)C2=O)c(OC)c1 [Example 16, 3-[1-(2,4-dimethoxy-benzyl)-2-oxo-2,5-dihydro-1H-pyrrol-3-yl]-propionic acid]	> 10	–
Cc1ccccc1CN1CC=C(CCC(=O)NO)C1=O [Example 6, N-hydroxy-3-[1-(2-methyl-benzyl)-2-oxo-2,5-dihydro-1H-pyrrol-3-yl]-propionamide]	< 10	–
COc1ccc(CN2CCC=C(CCCC(=O)NO)C2=O)cc1 [Example 95, 4-[1-(4-methoxy-benzyl)-2-oxo-1,2,5,6-tetrahydro-pyridin-3-yl]-N-hydroxy-butylamide]	> 10	–
O=C(CCC1=CCCN(CCc2ccccc2)C1=O)NO [Example 60]	< 10	–
COc1ccc(CN2CC=C(CCC(=O)NO)C2=O)c(OC)c1 [Example 1, 3-[1-(2,4-Dimethoxybenzyl)-2-oxo-2,5-dihydro-1H-pyrrol-3-yl]-N-hydroxypropionamide]	< 5	–
COc1ccc(CN2CCC=C(CCC(=O)O)C2=O)c(OC)c1 [Example 63, 3-[1-(2,4-dimethoxybenzyl)-2-oxo-1,2,5,6-tetrahydro-pyridin-3-yl)-propionic acid]	> 10	–
O=C(CCC1=CCN(CCc2ccccc2[N+](=O)[O-])C1=O)NO [Example 31, N-hydroxy-3-{1-[2-(2-nitro-phenyl)-ethyl]-2-oxo-2,5-dihydro-1H-pyrrol-3-yl}-propionamide]	< 5	–
CN1CCC=C(CCC(=O)NO)C1=O [Example 102, N-hydroxy-3-(1-methyl-2-oxo-1,2,5,6-tetrahydro-pyridin-3-yl)-propionamide]	> 10	–
O=C(CC1CCN(Cc2ccccc2)C1=O)NO (centres unmarked) [Example 25, 2-(1-benzyl-2-oxo-pyrrolidin-3-yl)-N-hydroxy-acetamide]	> 10	–
COc1ccc(CN2CC=C(CC(=O)NO)C2=O)c(OC)c1 [Example 21, 2-[1-(2,4-dimethoxy-benzyl)-2-oxo-2,5-dihydro-1H-pyrrol-3-yl]-N-hydroxy-acetamide]	> 10	–
O=C(CC1=CCCN(Cc2ccccc2)C1=O)NO [Example 83, 2-(1-benzyl-2-oxo-1,2,5,6-tetrahydro-pyridin-3-yl)-N-hydroxy-acetamide]	> 10	–
Cc1cccc(CN2CC=C(CCC(=O)NO)C2=O)c1 [Example 7, N-hydroxy-3-[1-(3-methyl-benzyl)-2-oxo-2,5-dihydro-1H-pyrrol-3-yl]-propionamide]	< 5	–
O=C(CCC1=CCCN(CCc2ccccc2)C1=O)NOCc1ccccc1 [Example 73, N-benzyloxy-3-(2-oxo-1-phenethyl-1,2,5,6-tetrahydro-pyridin-3-yl)-propionamide]	> 10	–
O=C(CCC1=CCN(CCc2ccccc2)C1=O)NO [Example 3, N-hydroxy-3-(2-oxo-1-phenethyl-2,5-dihydro-1H-pyrrol-3-yl)-propionamide]	< 1	–
O=C(CCC1=CCN(Cc2ccc(OCc3ccccc3)cc2)C1=O)NO [Example 14, 3-[1-(4-benzyloxy-benzyl)-2-oxo-2,5-dihydro-1H-pyrrol-3-yl]-N-hydroxy-propionamide]	< 10	–
Cc1cccc(CCCN2CC=C(CCC(=O)NO)C2=O)c1 [Example 42, N-hydroxy-3-[2-oxo-1-(3-m-tolyl-propyl)-2,5-dihydro-1H-pyrrol-3-yl]-propionamide]	< 1	–
COc1ccc(CCCN2CC=C(CCC(=O)NO)C2=O)cc1 [Example 46, N-hydroxy-3-{1-[3-(4-methoxy-phenyl)-propyl]-2-oxo-2,5-dihydro-1H-pyrrol-3-yl]-propionamide]	< 10	–
O=C(CCC1=CCN(CCCc2ccc3ccccc3c2)C1=O)NO [Example 56, N-hydroxy-3-[1-(3-naphthalene-2-yl-propyl)-2-oxo-2,5-dihydro-1H-pyrrol-3-yl]-propionamide]	–	AAA
O=C(CC1CCN(CCc2ccccc2)C1=O)NO (centres unmarked) [Example 27, N-hydroxy-2-(2-oxo-1-phenethyl-pyrrolidin-3-yl)-acetamide]	> 10	–

SMILES	IC50 [µg/mL]	Cell growth inhibition
O=C(CCC1=CCCCN(Cc2ccccc2)C1=O)NO [Example 105, 3-(1-Benzyl-2-oxo-2,5,6,7-tetrahydro-1H-azepin-3-yl)-N-hydroxy-propionamide]	> 10	–
Cc1ccc(CCN2CC=C(CCC(=O)NO)C2=O)cc1 [Example 39, N-hydroxy-3-[2-oxo-1-(2-p-tolyl-ethyl)-2,5-dihydro-1H-pyrrol-3-yl]-propionamide]	< 5	–
COc1ccc(CN2CCCC(CC(=O)NO)C2=O)c(OC)c1 (centres unmarked) [Example 92, 2-[1-(2,4-dimethoxy-benzyl)-2-oxo-piperidine-3-yl]-N-hydroxy-acetamide]	> 10	–
O=C(CCC1CCCN(CCc2ccccc2)C1=O)NO (centres unmarked) [Example 81, N-hydroxy-3-(2-oxo-1-phenethyl-piperidine-3-yl)-propionamide]	> 10	–
O=C(CCC1=CCCN(Cc2ccc3ccccc3c2)C1=O)NO [Example 103, N-hydroxy-3-(1-(naphthalene-2-yl-methyl)-2-oxo-1,2,5,6-tetrahydro-pyridin-3-yl)-propionamide]	< 10	–
Cc1ccc(CCCN2CC=C(CCC(=O)NO)C2=O)cc1 [Example 40, N-hydroxy-3-[2-oxo-1-(3-p-tolyl-propyl)-2,5-dihydro-1H-pyrrol-3-yl]-propionamide]	< 5	–
COc1ccc(CCN2CC=C(CCC(=O)NO)C2=O)cc1 [Example 38, N-hydroxy-3-{1-[2-(4-methoxy-phenyl)-ethyl]-2-oxo-2,5-dihydro-1H-pyrrol-3-yl}-propionamide]	< 5	–
COc1ccccc1CN1CC=C(CCC(=O)NO)C1=O [Example 9, N-hydroxy-3-[1-(2-methoxy-benzyl)-2-oxo-2,5-dihydro-1H-pyrrol-3-yl]-propionamide]	< 5	–
O=C(CCC1=CCN(CCCc2ccc(Cl)cc2)C1=O)NO [Example 45, 3-{1-[3-(4-chloro-phenyl)-propyl]-2-oxo-2,5-dihydro-1H-pyrrol-3-yl]-N-hydroxy-propionamide]	< 10	–
O=C(CCC1=CCN(CCc2ccc(Br)cc2)C1=O)NO [Example 35, 3-{1-[2-(4-bromo-phenyl)-ethyl]-2-oxo-2,5-dihydro-1H-pyrrol-3-yl}-N-hydroxy-propionamide]	< 5	–
CS(=O)(=O)N(c1ccc(CN2CCC=C(CCC(=O)NO)C2=O)cc1)S(C)(=O)=O [Example 76, N-hydroxy-3-[1-(4-dimethylsulfonylamino-benzyl)-2-oxo-1,2,5,6-tetrahydro-pyridin-3-yl]-propionamide]	> 10	–
O=C(CCC1=CCN(Cc2ccc(Br)cc2)C1=O)NO [Example 12, 3-[1-(4-bromo-benzyl)-2-oxo-2,5-dihydro-1H-pyrrol-3-yl]-N-hydroxy-propionamide]	< 1	–
O=C(CCC1=CCN(CCc2ccc([N+](=O)[O-])cc2)C1=O)NO [Example 33, N-hydroxy-3-{1-[2-(4-nitro-phenyl)-ethyl]-2-oxo-2,5-dihydro-1H-pyrrol-3-yl}-propionamide]	< 5	–
O=C(CCC1=CCN(CCc2ccc3ccccc3c2)C1=O)NO [Example 53, N-hydroxy-3-[1-(2-naphthalene-2-yl-ethyl)-2-oxo-2,5-dihydro-1H-pyrrol-3-yl]-propionamide]	< 1	–
O=C(CCC1=CCN(Cc2ccc(NC(=O)c3ccccc3)cc2)C1=O)NO [Example 18, N-{4-[3-(2-hydroxycarbamoyl-ethyl)-2-oxo-2,5-dihydro-pyrrole-1-yl-methyl]-phenyl}-benzamide]	< 10	–
CC(C)c1ccc(CCCN2CC=C(CCC(=O)NO)C2=O)cc1 [Example 43, N-hydroxy-3-{1-[3-(4-isopropyl-phenyl)-propyl]-2-oxo-2,5-dihydro-1H-pyrrol-3-yl]-propionamide]	< 5	–
O=C(CCC1=CCN(CCc2ccccc2F)C1=O)NO [Example 28, 3-{1-[2-(2-fluoro-phenyl)-ethyl]-2-oxo-2,5-dihydro-1H-pyrrol-3-yl}-N-hydroxy-propionamide]	< 5	–
O=C(CCC1=CCN(CCc2cccc(F)c2)C1=O)NO [Example 29, 3-{1-[2-(3-fluoro-phenyl)-ethyl]-2-oxo-2,5-dihydro-1H-pyrrol-3-yl}-N-hydroxy-propionamide]	< 5	–
O=C(CCC1=CCN(CCCc2ccc(Br)cc2)C1=O)NO [Example 44, 3-{1-[3-(4-bromo-phenyl)-propyl]-2-oxo-2,5-dihydro-1H-pyrrol-3-yl]-N-hydroxy-propionamide]	< 10	–
O=C(CCC1=CCCN(CCc2cccs2)C1=O)NO [Example 104, N-hydroxy-3-[2-oxo-1-(2-thiophen-2-yl-ethyl)-1,2,5,6-tetrahydro-pyridin-3-yl]-propionamide]	< 10	–
